# Reference: PubChem BioAssay AID488810 (Sanford-Burnham Center for Chemical Genomics, 2010)
# Values joined by “and” are separate entries in the source; they are usually repeats but may differ in a detail not shown here. Equal entries are not always repeated. Active and inactive are the calls of the source.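 The calls were made as follows: active = compounds with IC50 below 20 µM; inactive = the rest.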
# Target: Type-1 angiotensin II receptor (Homo sapiens) (UniProt P30556)
# Experiment: AGTR1 antagonism selectivity check – cell-based, CHO-K1 PathHunter, luminescence, selectivity assay for APJ antagonist project, SAR follow-up (AID 488810);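 also: agonist challenge with angiotensin II at 50 nM final near its EC80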
# Conditions: CHO-K1 AGTR1 PathHunter beta-arrestin, antagonist mode
# Sequence of Type-1 angiotensin II receptor (Homo sapiens) (P30556 whole entry, looked up): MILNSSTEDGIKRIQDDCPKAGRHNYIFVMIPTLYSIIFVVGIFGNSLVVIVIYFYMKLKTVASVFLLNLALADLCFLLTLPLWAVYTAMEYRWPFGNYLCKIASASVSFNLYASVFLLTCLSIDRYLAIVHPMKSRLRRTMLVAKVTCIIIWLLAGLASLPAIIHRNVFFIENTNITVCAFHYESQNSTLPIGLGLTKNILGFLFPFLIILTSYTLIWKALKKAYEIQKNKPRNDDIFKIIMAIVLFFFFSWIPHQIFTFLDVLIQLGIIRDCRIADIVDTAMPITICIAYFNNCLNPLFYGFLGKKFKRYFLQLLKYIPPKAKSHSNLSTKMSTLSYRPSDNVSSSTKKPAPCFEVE
row,Compound,IC50
1,Cc1ccnc(SCc2cc(=O)c(OC(=O)c3cccc(Cl)c3)co2)n1,> 79 µM (inactive)
2,O=C(COC(=O)c1cnccn1)c1ccc(Cl)c([N+](=O)[O-])c1,9.73 µM
3,O=C(CNc1cccc(Cl)c1)c1ccc(Br)cc1,3.03 µM
4,S=C1NCCc2ccccc2C1c1ccccc1Cl (configuration not stated),16.5 µM
5,Cc1ccnc(SCc2cc(=O)c(OC(=O)c3ccccc3C)co2)n1,> 79 µM (inactive)
6,Cc1cc(C)nc(SCc2cccc(O)c2)n1,> 79 µM (inactive)
7,Cc1cc(C)nc(NNS(=O)(=O)c2ccc(F)c(Cl)c2)n1,3.78 µM
8,Cc1ccccc1NCC(=O)c1ccc(Cl)cc1,1.72 µM
9,COc1ccc(NC2C(=O)Nc3ccccc32)cc1 (configuration not stated),> 79 µM (inactive)
10,Cc1ccnc(SCc2cc(=O)c(OC(=O)c3ccc(OC(F)(F)F)cc3)co2)n1,> 79 µM (inactive)
11,Cc1ccc(C)c(NCC(=O)c2ccc(Cl)cc2)c1,1.27 µM
12,Cc1ccnc(SCc2cc(=O)c(OC(=O)c3cc([N+](=O)[O-])ccc3Cl)co2)n1,inactive
13,CSc1cccc(N=C2C(=O)Nc3ccccc32)c1,5.13 µM and 8.85 µM
14,Cc1ccnc(SCc2cc(=O)c(OC(=O)c3ccc(C(F)(F)F)cc3)co2)n1,> 79 µM (inactive)
15,Cc1cccc(C(=O)Oc2coc(CSc3nccc(C)n3)cc2=O)c1,> 79 µM (inactive)
16,CCCCOc1ccc(C(=O)Oc2coc(CSc3ncccn3)cc2=O)cc1,> 79 µM (inactive)
17,COC(=O)C1NN=C(C(=O)c2ccc(Cl)cc2)C1c1ccc(OC)cc1 (configuration not stated),16.1 µM
18,O=C(CNS(=O)(=O)c1ccccc1)OCC(=O)c1cccc([N+](=O)[O-])c1,inactive
19,CC(C)(C)c1ccc(-n2nc(C#N)c(Cl)cc2=O)cc1,8.21 µM
20,O=C(Oc1coc(CSc2ccccc2)cc1=O)c1ccc(Cl)c([N+](=O)[O-])c1,> 79 µM (inactive)
21,Oc1cccc(CSc2ncccn2)c1,> 79 µM (inactive)
22,Cc1ccnc(SCc2cc(=O)c(O)co2)n1,> 79 µM (inactive)
23,CC1(C)CC2(CC(c3ccccc3Cl)c3cc(Cl)c(OC(=O)C4CC4)cc3O2)NC(=S)N1 (configuration not stated),> 79 µM (inactive)
24,O=C(Oc1coc(CSc2ncccn2)cc1=O)c1cc(Cl)ccc1[N+](=O)[O-],inactive
25,O=C(Oc1coc(CSc2ncccn2)cc1=O)c1ccc(Br)cc1,> 79 µM (inactive)

# Second part, the compound after the results:
row,IC50,Compound
1,> 79 µM (inactive),CCOc1ccc(C(=O)Oc2coc(CSc3ncccn3)cc2=O)cc1
2,> 79 µM (inactive),CSC1=NC2(CC(c3ccccc3)c3cc(Cl)c(O)cc3O2)CC(C)(C)N1 (configuration not stated)
3,2.1 µM,O=C(CNc1ccccc1C(=O)O)c1ccccc1
4,inactive,CC(=O)Oc1cc2c(cc1Cl)C(c1ccccc1Cl)CC1(CC(C)(C)NC(=S)N1)O2 (configuration not stated)
5,> 79 µM (inactive),Cc1ccnc(SCc2cc(=O)c(OC(=O)c3ccc(S(=O)(=O)N4CCCC4)cc3)co2)n1
6,> 79 µM (inactive),COc1ccc(N=C2C(=O)Nc3ccc(C)c(Br)c32)cc1
7,> 79 µM (inactive),C=CCOc1cccc(CSc2nccc(C)n2)c1
8,2.56 µM,Cc1ccc(NCC(=O)c2ccccc2)cc1
9,> 79 µM (inactive),Cc1ccc(C(=O)Oc2coc(CSc3ncccn3)cc2=O)cc1[N+](=O)[O-]
10,2.66 µM,O=C(CNc1ccc(Br)cc1)c1ccccc1
11,3.24 µM,NC(=O)c1ccccc1NCC(=O)c1ccc(Cl)cc1
12,> 79 µM (inactive),Cc1ccc(NCC(O)c2ccccc2)cc1 (configuration not stated)
13,> 79 µM (inactive),Cc1cc(C)nc(SCc2cc(=O)c(OC(=O)c3ccc(C)c([N+](=O)[O-])c3)co2)n1
14,> 79 µM (inactive),O=C(Oc1coc(CSc2ncccn2)cc1=O)c1cccc([N+](=O)[O-])c1
15,> 79 µM (inactive),Cc1cc(C)nc(SCc2ccc(O)c(Cl)c2)n1
16,> 79 µM (inactive),Cc1c(O)ccc2c1OC1(CC2c2ccccc2Cl)CC(C)(C)NC(=O)N1 (configuration not stated)
17,> 79 µM (inactive),Cc1ccnc(SCc2cc(=O)c(OC(=O)c3ccc(Cl)cc3)co2)n1
18,15 µM,CC(C)Cc1nc2oc3c(Cl)ncnc3c2c2c1CCC2
19,> 79 µM (inactive),O=C(Oc1coc(CSc2ncccn2)cc1=O)c1ccc(S(=O)(=O)N2CCOCC2)cc1
20,6.68 µM,O=C1Nc2ccccc2C1=Nc1ccc(Br)cc1
21,15.6 µM,O=c1c2cc(Br)ccc2[nH]c(=S)n1Cc1ccccn1
22,17 µM,Oc1cccc2ccc(/C=C/c3ccccc3Cl)nc12
23,3.44 µM,Cc1ccc(C(=O)CNc2cc(C)ccc2C)cc1
24,18.8 µM,COc1ccc(C(=O)CNc2cccc(F)c2)cc1
25,> 79 µM (inactive),Cc1ccnc(SCc2cc(=O)c(OC(=O)c3ccccc3)co2)n1
26,> 79 µM (inactive),COc1cccc(C(=O)Oc2coc(CSc3nccc(C)n3)cc2=O)c1
27,9.49 µM,O=C1Nc2ccccc2C1=Nc1ccc(F)cc1
